Results reported in patent US20170107486A1, “HEPATOCYTE PRODUCTION VIA FORWARD PROGRAMMING BY COMBINED GENETIC AND CHEMICAL ENGINEERING” (Cellular Dynamics International, Inc., priority 2014, published 2017).

What was measured:
[1] = system: human rtTET-expressing ESCs transfected with GFH, H1ANR3 and TBX3; test: Hepatic programming efficiency, albumin (ALB) flow analysis; assay type: cell-based; conditions: for % ALB-expressing cells (hepatic programming efficiency): 0.5 μM added alone along with doxycycline between day 1 and day 7 post-plating, ALB flow analysis on day 13, FIG. 6
Source text: Genes that are either implicated in hepatic differentiation during normal mammalian development or enriched in adult hepatocytes were cloned into the PiggyBac vector (FIG. 3) under the control of the […] promoter (Table 1). To find transcription factors that are able to directly impose mature hepatic fate upon human ESCs, various combinations of transgene-expressing PiggyBac vectors along with the hPBase-expressing vector were introduced into the human ESCs having constitutive expression of rtTET through nucleofection (Minis Ingenio Electroporation solution: cat# MIR50114; program: Amaxa B-016). Nucleofected human ESCs were cultured on matrigel in mTeSR1 (Stem Cell Technologies). Following geneticin (100 μg/ml) selection for stable genomic transgene integration (cells were passaged at lease once prior to differentiation), human ESCs were individualized by accutase treatment and plated to matrigel-coated 12-well plates. Doxycycline (1 μg/ml) was added the next day to induce transgene expression in Hepatocyte Maintenance Medium (HMM, Lonza) supplemented with 0.5 μg/ml insulin, 0.1 μM dexamethasone (dex), and 50 ng/ml Oncostatin M (OSM). After transgene induction for the appropriate number of days, doxycycline was removed, and cells were allowed to transition to hepatocyte-like cells and were maintained in HMM supplemented with 0.5 μg/ml insulin, 0.1 μM dex, and 50 ng/ml OSM prior to characterization. Where appropriate, small molecules, such as MEK inhibitor PD0325901, […] kinase/activin receptor like kinase (ALK5) inhibitor A 83-01, and an analogue of the natural signaling molecule cyclic AMP 8-Bromoadenosine 3',5'-cyclic monophosphate (8-Br-cAMP), were added during hepatic programming. To determine the effect of MEK inhibitor PD0325901 (P) and TGFβ kinase/activin receptor like kinase (ALK5) inhibitor A 83-01 (A) on hepatic programming efficiency, human rtTET-expressing ESCs transfected with […]3 and TBX3 were plated on matrigel-coated 12-well plates at about 0.2×10^6 cells/well in mTeSR supplemented with 10 μM HA100 on day 0. PD0325901 (0.5 μM), A 83-01 (0.5 μM) or both were added along with doxycycline between day 1 and day 7 post-plating. Cells were collected for albumin (ALB) flow analysis on day 13 post-plating. […] To determine the effect of cyclic AMP analog 8-Br-cAMP on hepatic programming, human rtTET-expressing ESCs transfected with […]3 and TBX3 were plated on matrigel-coated 12-well plates at about 0.2×10^6 cells/well in mTeSR supplemented with 10 μM HA100 on day 0. Doxycycline (1 μg/ml), P and A were added between day 1 and day 7 post-plating. Following the removal of doxycycline, P and A on day 7, different concentrations of 8-Br-cAMP were added to promote hepatic transition. Cells were collected for ALB flow analysis on day 13 post-plating.

MEK1 and MEK2 = conditions: Bain et al., 2007; cited from earlier work

## Nc1ncnc2c1nc(Br)n2[C@@H]1O[C@@H]2COP(=O)(O)O[C@H]2[C@H]1O [8-Br-cAMP, 8-Bromoadenosine 3′,5′-cyclic monophosphate]
[1]; added from day 7 after removal of doxycycline, P and A, ALB flow analysis day 13, FIG. 8
  saturation concentration for improvement of hepatic programming: ~200 µM
[1]; different concentrations added from day 7 after removal of doxycycline, P and A, ALB flow analysis day 13, FIG. 8
  hepatic programming (ALB flow analysis): significantly improved

## Cc1cccc(-c2nn(C(=S)Nc3ccccc3)cc2-c2ccnc3ccccc23)n1 [A 83-01]
[1]
  % ALB-expressing cells (hepatic programming efficiency): significantly improves

## O=C(NOCC1CC1)c1ccc(F)c(F)c1Nc1ccc(I)cc1Cl [PD184352]
MEK1 and MEK2
  specificity and potency compared to other known MEK inhibitors: high degree of specificity and potency

## O=C(NOC[C@H](O)CO)c1ccc(F)c(F)c1Nc1ccc(I)cc1F [PD0325901]
[1]
  % ALB-expressing cells (hepatic programming efficiency): significantly improves
